The text below walks through data of a melting point compilation (Tetko et al.; mined from patent text by program, amines drawn as free bases though some values may be those of a salt).

In turn, `CCOC1=C(C)C(=O)C(C)(C)CC1` displayed a melting point of 104 to 106 °C.

Regarding `O=C(O)c1ccc(-c2nn(Cc3cccc(Cl)c3)c(=S)[nH]2)cc1`, the melting point is 302 °C.

As for `Clc1cnn(-c2ccc(CBr)c(Cl)c2)c1`, the melting point fell in the range of 77 to 78 °C.

The compound `COc1cc2c(cc1OC)C(c1ccccc1N)=NN=C(C)C2` showed a melting point of 172 to 174 °C.

Take `COc1ccccc1NC(=O)N1CCC(=O)C(C(c2ccccc2)c2ccccc2)C1` (stereo not drawn): the melting point fell in the range of 150 to 151 °C.

`O=C([C@H](Cc1ccccc1)NC1CCCCC1)N1CCN(C(c2ccc(F)cc2)c2ccc(F)cc2)CC1` showed a melting point of 60 to 64 °C.

As to `O[C@H](CCc1cccnc1)COc1ccc(C#Cc2ccccc2)cc1`, the melting point was in the range of 67 to 68 °C.

Consider `COC(=O)C1Cc2sc3c(c2C1)C(c1ccccc1Cl)=NCC(=O)N3` (stereo not drawn), for which the melting point was 178 to 181 °C.

`NS(=O)(=O)c1ccc(NN=C2C(=O)Nc3ccc(C(=O)NCc4ccncc4)cc32)cc1` came in with a melting point of 211 to 215 °C.

On to `CCCC1c2cc(C(C)(C)C)cc(C(C)(C)C)c2OP(=O)(c2ccccc2)Oc2c1cc(C(C)(C)C)cc2C(C)(C)C` (stereo not drawn), for which the melting point lay in the range of 232 to 234 °C.

`CCC1Nc2c(cc(C)nc2C)N1c1ccc(CCNC(=O)NS(=O)(=O)c2ccc(C)cc2)cc1` (stereo not drawn) had a melting point of 143 °C.

With `C=CCCCCN1C(=O)c2ccccc2C1=O`, the melting point lay within 17 to 20 °C.

Compound `O=C1c2cccc(NC(=S)Nc3cccc4c3C3CC5(CCN3C4=O)SCCS5)c2C2CC3(CCN12)SCCS3` (stereo not drawn) yielded a melting point of 188 °C.

The compound `Cc1ccc(C)c2oc(CN3CCC[C@@H](OCc4cc(C(F)(F)F)cc(C(F)(F)F)c4)[C@H]3c3ccccc3)nc12` (relative stereo) gave a melting point of 109 to 110 °C.

On to `COc1ccc(C2=CCC(C#N)CC2)c2c1OCCO2` (stereo not drawn), for which the melting point stood at 79 °C.

As to `NC(=O)c1cn(CC2CC2)c2ccccc12`, the melting point worked out at 170 °C.

`N#Cc1ccc([C@H]2CC[C@H](C=O)CC2)cc1` showed a melting point of 57.1 °C.

Regarding `CC[N+](CC)(CC)C1CC(=O)N1C(C(=O)OCc1ccc([N+](=O)[O-])cc1)=C([O-])CCSC` (stereo not drawn), the melting point worked out at 91 °C.

In the case of `COc1ccc(COc2ccc3cc(C(C)C(=O)O)ccc3c2)cc1OC1CC2CCC1C2` (stereo not drawn), the melting point lay in the range of 125 to 128 °C.

Compound `CC(C)(C)Nc1c(NCc2ccc(F)cc2C(F)(F)F)c(=O)c1=O` registered a melting point of 192 to 194 °C.

Turning to `Cc1cc(C)c2ncc(NC(=O)C3(C)CCc4c(C)c(O)c(C)c(C)c4O3)c(-c3ccccc3Cl)c2c1` (stereo not drawn), the melting point fell in the range of 222 to 224 °C.

Consider `CCOC(=O)c1cn(C2CC2)c2c(OC(F)F)c(F)c(F)c([N+](=O)[O-])c2c1=O`, for which the melting point is 262 to 268 °C.

`CS(=O)(=O)c1ncc2cc(Oc3ccccc3F)c(=O)n(-c3ccc(F)cc3)c2n1` registered a melting point of 82.3 to 91.5 °C.

The compound `Fc1c(Cl)cccc1COc1cccnc1NC(=S)Nc1ccc(Cl)cc1` registered a melting point of 174 to 176 °C.

With `CC(C)(C)c1ccc2c(c1)Cc1cc(C(C)(C)C)ccc1-2`, the melting point is 120 to 121 °C.

In turn, `Cc1cccc(-c2[nH]c(C(C)C)nc2-c2cccc(-c3ccncc3)c2)n1` yielded a melting point of 84 to 86 °C.

Take `CCCc1nn(C)c2c(=O)[nH]c(-c3cc(CCC(=O)O)ccc3OCC)nc12`: the melting point fell in the range of 165 to 167 °C.

Compound `Cc1cc(C(O)(C=Cc2ccc(Cl)cc2)C(F)(F)F)ccc1NC(=O)c1cccc(I)c1C(=O)NC(C)C` (stereo not drawn) showed a melting point of 65 to 75 °C.

The compound `O=C1c2ccccc2C(OCCCl)N1c1ccccc1` (stereo not drawn) displayed a melting point of 71 °C.

As for `Cc1nc[nH]c1CSCCN=C(NC#N)NCCN`, the melting point fell in the range of 164 to 167 °C.

`O=C(O)C1=C(Sc2ccccc2)CC2CC(=O)C12` (stereo not drawn) displayed a melting point of 213 to 215 °C.

For the compound `Cn1cncc1C(O)(c1ccc(Cl)cc1)c1ccc2nc(NN)nc(-c3cccc(Cl)c3)c2c1` (stereo not drawn), the melting point turned out to be 186 °C.

On to `CN1CCCC[C@H]1C[C@H](O)c1ccc(Br)cc1`, for which the melting point fell in the range of 102 to 104 °C.
